# Laboratory results: patent US20230233576A1, “ECLITASERTIB FOR USE IN TREATING CONDITIONS INVOLVING SYSTEMIC HYPERINFLAMMATORY RESPONSE” (priority 2020, published 2023)
# Test system: adult participants hospitalized for severe COVID-19
# Assay: Phase 1b severe COVID-19 study: adverse events and deaths
# Type: in vivo, human
# Source text: Safety evaluation was based on adverse events (Aes) including serious adverse events (SAEs) and adverse events of special interest (AESIs) (i.e., pregnancy, symptomatic overdose with IMP. Alanine aminotransferase [ALT] increase, and anemia), and treatment-emergent adverse events (TEAEs) leading to treatment discontinuation.
# The primary focus of AE reporting was on treatment emergent adverse events (TEAEs). Treatment emergent adverse events were Aes that were not present at baseline or represented the exacerbation of a pre-existing condition during the on-treatment period (treatment-emergent period), defined as the time from the first administration of the IMP up to and including the day of last dose of study drug plus 5 days.
# All adverse events were coded to a “preferred term (PT)”, “high-level term (HLT)”, “high-level group term (HLGT)”, and associated primary SOC using Medical Dictionary for Regulatory Activities (MedDRA) version 23.1.
# The number and cumulative incidence rate of deaths [%] during the on-study period were computed by treatment group: number of deaths divided by the number of participants. Kaplan-Meier plot for time to death was presented by treatment group.
# [1] = 600 mg (N = 47), Safety population
# [2] = 600 mg (N = 47), Safety population, corresponds to worsening of COVID-19
# [3] = 600 mg, Safety population (N = 47)
# [4] = 600 mg, Study day 0, Safety population
# [5] = 600 mg, Study day 13, Safety population
# [6] = 600 mg, Study day 15, Safety population
# [7] = 600 mg, Study day 27, Safety population
# [8] = 600 mg, Study day 28, Safety population
# [9] = 600 mg, Study day 29, Safety population
# [10] = 600 mg, Study day 30, Safety population
# [11] = 600 mg, Study day 31, Safety population
# [12] = 600 mg, Study day 33, Safety population
# [13] = 600 mg, Study day 42, Safety population
# [14] = 600 mg, Study day 60, Safety population
# [15] = post-treatment period, 600 mg (N = 47), safety population
# [16] = pre-treatment emergent adverse events, 600 mg group (N = 47), safety population
compound,measurement,setting,value
"CN1C(=O)[C@@H](NC(=O)c2nnc(Cc3ccccc3)[nH]2)COc2cccnc21 [RIPK1 Inhibitor, (S)-5-benzyl-N-(5-methyl-4-oxo-2,3,4,5-tetrahydropyrido[3,2-b][1,4]oxazepin-3-yl)-4H-1,2,4-triazole-3-carboxamide]","TEAE, PT Pulmonary embolism: percentage of participants",[1],(2.1) %
same,"TEAE, PT Pyrexia: number of participants",[1],1
same,"TEAE, PT Pyrexia: percentage of participants",[1],(2.1) %
same,"TEAE, PT Renal cyst: number of participants",[1],0
same,"TEAE, PT Renal impairment: number of participants",[1],0
same,"TEAE, PT Respiratory disorder: number of participants",[1],1
same,"TEAE, PT Respiratory disorder: percentage of participants",[1],(2.1) %
same,"TEAE, PT Respiratory failure: number of participants",[1],0
same,"TEAE, PT Subcutaneous emphysema: number of participants",[1],0
same,"TEAE, PT Tachycardia paroxysmal: number of participants",[1],0
same,"TEAE, PT Tracheitis: number of participants",[1],0
same,"TEAE, PT Tracheobronchitis: number of participants",[1],0
same,"TEAE, PT Transaminases increased: number of participants",[1],0
same,"TEAE, PT Venous thrombosis limb: number of participants",[1],1
same,"TEAE, PT Venous thrombosis limb: percentage of participants",[1],(2.1) %
same,"TEAE, PT Vessel puncture site phlebitis: number of participants",[1],1
same,"TEAE, PT Vessel puncture site phlebitis: percentage of participants",[1],(2.1) %
same,"TEAE, PT Vomiting: number of participants",[1],0
same,"TEAE, SOC BLOOD AND LYMPHATIC SYSTEM DISORDERS: number of participants",[1],1
same,"TEAE, SOC BLOOD AND LYMPHATIC SYSTEM DISORDERS: percentage of participants",[1],(2.1) %
same,"TEAE, SOC CARDIAC DISORDERS: number of participants",[1],0
same,"TEAE, SOC GASTROINTESTINAL DISORDERS: number of participants",[1],6
same,"TEAE, SOC GASTROINTESTINAL DISORDERS: percentage of participants",[1],(12.8) %
same,"TEAE, SOC GENERAL DISORDERS AND ADMINISTRATION SITE CONDITIONS: number of participants",[1],6
same,"TEAE, SOC GENERAL DISORDERS AND ADMINISTRATION SITE CONDITIONS: percentage of participants",[1],(12.8) %
same,"TEAE, SOC HEPATOBILIARY DISORDERS: number of participants",[1],0
same,"TEAE, SOC IMMUNE SYSTEM DISORDERS: number of participants",[1],1
same,"TEAE, SOC IMMUNE SYSTEM DISORDERS: percentage of participants",[1],(2.1) %
same,"TEAE, SOC INFECTIONS AND INFESTATIONS: number of participants",[1],4
same,"TEAE, SOC INFECTIONS AND INFESTATIONS: percentage of participants",[1],(8.5) %
same,"TEAE, SOC INJURY, POISONING AND PROCEDURAL COMPLICATIONS: number of participants",[1],1
same,"TEAE, SOC INJURY, POISONING AND PROCEDURAL COMPLICATIONS: percentage of participants",[1],(2.1) %
same,"TEAE, SOC INVESTIGATIONS: number of participants",[1],6
same,"TEAE, SOC INVESTIGATIONS: percentage of participants",[1],(12.8) %
same,"TEAE, SOC METABOLISM AND NUTRITION DISORDERS: number of participants",[1],3
same,"TEAE, SOC METABOLISM AND NUTRITION DISORDERS: percentage of participants",[1],(6.4) %
same,"TEAE, SOC MUSCULOSKELETAL AND CONNECTIVE TISSUE DISORDERS: number of participants",[1],1
same,"TEAE, SOC MUSCULOSKELETAL AND CONNECTIVE TISSUE DISORDERS: percentage of participants",[1],(2.1) %
same,"TEAE, SOC NERVOUS SYSTEM DISORDERS: number of participants",[1],0
same,"TEAE, SOC PSYCHIATRIC DISORDERS: number of participants",[1],1
same,"TEAE, SOC PSYCHIATRIC DISORDERS: percentage of participants",[1],(2.1) %
same,"TEAE, SOC RENAL AND URINARY DISORDERS: number of participants",[1],0
same,"TEAE, SOC REPRODUCTIVE SYSTEM AND BREAST DISORDERS: number of participants",[1],0
same,"TEAE, SOC RESPIRATORY, THORACIC AND M[…]: number of participants",[1],4
same,"TEAE, SOC RESPIRATORY, THORACIC AND M[…]: percentage of participants",[1],(8.5) %
same,"TEAE, SOC SKIN AND SUBCUTANEOUS TISSUE DISORDERS: number of participants",[1],0
same,"TEAE, SOC VASCULAR DISORDERS: number of participants",[1],3
same,"TEAE, SOC VASCULAR DISORDERS: percentage of participants",[1],(6.4) %
same,"TEAE, PT Condition aggravated: number of participants",[2],4
same,"TEAE, PT Condition aggravated: percentage of participants",[2],(8.5) %
same,deaths up to Day 28,[3],4.3%
same,number of AESIs,[3],6 AESIs
same,number of TEAEs considered as IMP-related by the Investigator,[3],2 TEAEs
same,number of TEAEs leading to treatment discontinuation,[3],5 TEAEs
same,number of serious TEAEs,[3],8 serious TEAEs
same,"participants with AESI, PT Anaemia",[3],0 n
same,"participants with AESI, PT Transaminases increased",[3],0 n
same,"participants with AESI, SOC BLOOD AND LYMPHATIC SYSTEM DISORDERS",[3],0 n
same,participants with post-treatment AE leading to death,[3],1 participant
same,deaths up to Day 28,"600 mg, Safety population (N = 47), on Day 11 and Day 15",2 participants
same,Cumulative incidence rate of deaths,[4],0
same,Number of deaths,[4],0
same,Cumulative incidence rate of deaths,[5],0.02
same,Number of deaths,[5],1
same,Cumulative incidence rate of deaths,[6],0.04
same,Number of deaths,[6],1
same,Cumulative incidence rate of deaths,[7],0.04
same,Number of deaths,[7],0
same,Cumulative incidence rate of deaths,[8],0.04
same,Number of deaths,[8],0
same,Cumulative incidence rate of deaths,[9],0.04
same,Number of deaths,[9],0
same,Cumulative incidence rate of deaths,[10],0.04
same,Number of deaths,[10],0
same,Cumulative incidence rate of deaths,[11],0.04
same,Number of deaths,[11],0
same,Cumulative incidence rate of deaths,[12],0.04
same,Number of deaths,[12],0
same,Cumulative incidence rate of deaths,[13],0.04
same,Number of deaths,[13],0
same,Cumulative incidence rate of deaths,[14],0.04
same,Number of deaths,[14],0
same,participants with post-treatment AESI of transaminase increase,"600 mg, abnormal ALT and AST levels",One
same,participants with PCSAs of elevated glucose levels considered as a TEAE of hyperglycemia,"600 mg, from an abnormal baseline",One
same,overall safety and tolerability as compared to placebo,"daily doses over 15 days, severe COVID-19, with standard of care",generally safe and well tolerated
same,Participants with any post-treatment AE,[15],6 (12.8) n (%)
same,Participants with any post-treatment AE leading to death,[15],1 (2.1) n (%)
same,Participants with any post-treatment SAE,[15],1 (2.1) n (%)
same,Participants with any post-treatment related to the compound,[15],0 n (%)
same,Participants with severe post-treatment AE,[15],1 (2.1) n (%)
same,Participants with any pre-treatment AE,[16],2 (4.3) n (%)
same,Participants with any pre-treatment AE leading to death,[16],0 n (%)
same,Participants with any pre-treatment SAE,[16],1 (2.1) n (%)
same,Participants with severe pre-treatment AE,[16],1 (2.1) n (%)
